Assays:
[1] = target: T1, cloned human m2 muscarinic receptor (Homo sapiens, UniProt P08172); assay: Muscarinic binding, inhibition of 3H-QNB binding, m2; conditions: for m1/m2 (Ki ratio): Ki for m1 receptors divided by Ki for m2 receptors, higher ratio = greater m2 selectivity; for m4/m2 (Ki ratio): Ki for m4 divided by Ki for m2; for m1/m2 and m4/m2 ratios, in words: tests reported in Table 1
T1 construct: expressed in transfected cells; host or cells: CHO (stably transfected), membranes
T1 sequence (P08172 1-466): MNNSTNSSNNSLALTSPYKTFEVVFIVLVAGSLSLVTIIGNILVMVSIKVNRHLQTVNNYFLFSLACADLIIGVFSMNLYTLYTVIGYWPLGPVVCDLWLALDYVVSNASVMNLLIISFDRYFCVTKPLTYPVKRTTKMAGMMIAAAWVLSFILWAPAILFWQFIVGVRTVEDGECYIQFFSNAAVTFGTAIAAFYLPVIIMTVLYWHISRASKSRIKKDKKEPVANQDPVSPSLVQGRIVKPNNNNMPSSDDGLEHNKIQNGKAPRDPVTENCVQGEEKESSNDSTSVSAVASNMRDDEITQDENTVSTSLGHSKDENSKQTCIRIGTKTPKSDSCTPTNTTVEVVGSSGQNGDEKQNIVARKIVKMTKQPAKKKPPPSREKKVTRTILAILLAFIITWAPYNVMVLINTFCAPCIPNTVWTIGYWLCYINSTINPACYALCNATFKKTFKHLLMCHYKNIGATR

m2 muscarinic = conditions: Baumgold et al., Eur. J. Pharmacol., 251 (1994) 315-317; cited from earlier work
[2] = target: T2, cloned human m1 muscarinic receptor (Homo sapiens, UniProt P11229); assay: Muscarinic binding, inhibition of 3H-QNB binding, m1; conditions: CHO cell membranes, 25° C., 90 minutes
T2 construct: expressed in transfected cells; host or cells: CHO (stably transfected), membranes
T2 sequence (P11229 1-460): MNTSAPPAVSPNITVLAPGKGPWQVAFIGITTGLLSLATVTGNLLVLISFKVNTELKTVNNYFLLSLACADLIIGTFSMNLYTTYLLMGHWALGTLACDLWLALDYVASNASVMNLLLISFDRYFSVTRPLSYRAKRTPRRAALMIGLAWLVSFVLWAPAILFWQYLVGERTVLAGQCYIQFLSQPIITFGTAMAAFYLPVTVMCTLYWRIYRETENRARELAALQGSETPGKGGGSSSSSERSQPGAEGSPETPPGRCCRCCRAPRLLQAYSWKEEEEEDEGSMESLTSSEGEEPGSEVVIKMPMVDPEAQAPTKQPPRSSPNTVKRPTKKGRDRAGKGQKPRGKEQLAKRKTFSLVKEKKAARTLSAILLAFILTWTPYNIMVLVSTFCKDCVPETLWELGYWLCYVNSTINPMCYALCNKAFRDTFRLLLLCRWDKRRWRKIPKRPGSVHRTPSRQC

[3] = target: T3, cloned human m4 muscarinic receptor (Homo sapiens, UniProt P08173); assay: Muscarinic binding, inhibition of 3H-QNB binding, m4; conditions: CHO cell membranes, 25° C., 90 minutes
T3 construct: expressed in transfected cells; host or cells: CHO (stably transfected), membranes
T3 sequence (P08173 1-479): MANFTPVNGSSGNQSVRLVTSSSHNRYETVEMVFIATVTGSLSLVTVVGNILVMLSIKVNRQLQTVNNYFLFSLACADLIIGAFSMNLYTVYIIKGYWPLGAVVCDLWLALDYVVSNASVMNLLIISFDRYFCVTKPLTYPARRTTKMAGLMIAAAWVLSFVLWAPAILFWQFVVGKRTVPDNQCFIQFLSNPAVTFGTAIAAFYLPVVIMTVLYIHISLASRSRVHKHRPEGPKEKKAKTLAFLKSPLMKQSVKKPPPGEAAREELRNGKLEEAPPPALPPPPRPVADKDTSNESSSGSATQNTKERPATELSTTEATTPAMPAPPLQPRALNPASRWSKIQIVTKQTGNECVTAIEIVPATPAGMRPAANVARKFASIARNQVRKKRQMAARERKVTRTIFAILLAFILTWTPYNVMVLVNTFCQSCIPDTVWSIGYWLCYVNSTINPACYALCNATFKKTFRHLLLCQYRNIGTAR

Structure (SMILES) | m1/m2 (Ki ratio) [1] | m4/m2 (Ki ratio) [1] | other results
c1cnc(Oc2ccc3c(c2)CCC3N2CCN(C3CCCCC3)CC2)nc1 (single isomer, unassigned) [Compound 10] | 13.2 | 1.5 | m1/m2 and m4/m2 ratios, in words [1]: useful values of the m1/m2 and m4/m2 ratios
COc1ccc(S(=O)(=O)c2ccc3c(c2)CCC3N2CCC(N3CCCCC3)CC2)cc1 (stereo not shown) [Compound 13] | 4.0 | 2.0 | –
CC(=O)Nc1ccc(Oc2ccc3c(c2)OCCC3N2CCN(C3CCCCC3)CC2)cc1 (stereo not shown) [Compound 4] | 1.0 | > 0.9 | –
C[C@H]1CC[C@@H]2N(C1)C[C@H]1[C@@H]3C[C@H]4[C@@H](CC(=O)[C@H]5C[C@@H](Cl)CC[C@@]54C)[C@@H]3CC[C@H]1[C@]2(C)O [3-α-chloroimperialine] | – | – | m2 muscarinic antagonist selectivity, in words (m2 muscarinic): highly selective m2 muscarinic antagonist
c1cnc(Oc2ccc3c(c2)CC(CC2CCCCC2)C3N2CCN(C3CCCCC3)CC2)nc1 (stereo not shown) [Compound 12, 2-[[1-(4-Cyclohexyl-1-piperazinyl)-2-(cyclohexylmethyl)-2,3-dihydro-1H-inden-5-yl]oxy]pyrimidine] | 1.9 | – | –
COc1ccc(S(=O)(=O)c2ccc3c(c2)CCC3N2CCN(C3CCCCC3)C[C@H]2C)cc1 (single isomer, unassigned) [Compound 14] | 18.4 | 2.6 | m1/m2 and m4/m2 ratios, in words [1]: useful values of the m1/m2 and m4/m2 ratios
Nc1ccc(Oc2ccc3c(c2)OCCC3N2CCN(C3CCCCC3)CC2)cc1 (stereo not shown) [Compound 3] | 0.6 | 0.3 | –
Nc1ccc(Oc2ccc3c(c2)CCCC3N2CCN(C3CCCCC3)CC2)cc1 (stereo not shown) [Compound 7] | 4.0 | 0.8 | –
c1cnc(Oc2ccc3c(c2)CCCCC3N2CCN(C3CCCCC3)CC2)nc1 (stereo not shown) [Compound 8] | 3.3 | 0.9 | Ki [2]: 88 nM; Ki ([1]; 3H-QNB binding, CHO cell membranes, 25° C., 90 minutes): 27 nM; Ki [3]: 23 nM
c1cnc(Oc2ccc3c(c2)CCC3N2CCN(C3CCCCC3)CC2)nc1 (single isomer, unassigned) [Compound 11] | 3.6 | – | –
O=S(=O)(c1ccccc1)c1ccc2c(c1)CCC2N1CCN(CCO)CC1 (stereo not shown) [Compound 1] | 4.5 | 1.3 | –
COc1ccc(S(=O)(=O)c2ccc3c(c2)CCC3N2CCN(C3CCCCC3)C[C@H]2C)cc1 (single isomer, unassigned) [Compound 15] | 11.2 | 2.5 | m1/m2 and m4/m2 ratios, in words [1]: useful values of the m1/m2 and m4/m2 ratios
c1cnc(Oc2ccc3c(c2)CCC3N2CCN(C3CCCCC3)CC2)nc1 (stereo not shown) [Compound 9] | 7.7 | – | m1/m2 and m4/m2 ratios, in words [1]: useful values of the m1/m2 and m4/m2 ratios
c1cnc(Oc2ccc3c(c2)CCCC3N2CCN(C3CCCCC3)CC2)nc1 (stereo not shown) [Compound 5, 4-Cyclohexyl-1-piperazinyl-[6-[(2-pyrimidinyl)oxy]]-1,2,3,4-tetrahydro-naphthalene] | 7.5 | 1.6 | –
O=[N+]([O-])c1ccc(Oc2ccc3c(c2)OCCC3N2CCN(C3CCCCC3)CC2)cc1 (stereo not shown) [Compound 2, 1-Cyclohexyl-4-[7-[(4-nitrophenyl)oxy]-chroman-4-yl]-piperazine] | 1.5 | – | –
O=[N+]([O-])c1ccc(Oc2ccc3c(c2)CCCC3N2CCN(C3CCCCC3)CC2)cc1 (stereo not shown) [Compound 6] | 6.6 | 0.8 | –
